# Assays:
# HeLa cells = assay: Widefield microscopy for signaling phenotype analysis; assay type: cell-based; conditions: EGFP-DNCR2-TIAM, BFP-GNCR1-LARG and NS3a-CAAX in HeLa cells
# Protocol: Widefield images were collected in an environmental chamber with humidity control, 37° C., and 5% CO2 on a Leica DMi8 automated fluorescence microscope. Cells were plated on glass-bottomed 96-well plates (Cellvis). Plates were treated with 10 μg/mL bovine fibronectin (Sigma Aldrich) for 1 hour and washed once with PBS.
# The cell line used was TRex™-HeLa (ThermoFisher Scientific), into which Lifeact-mCherry™ was stably integrated into the doxycycline-regulated Flp-In site by co-transfection of the pCDNA5-FRT/TO-Lifeact-mCherry™ vector with the Flp recombinase plasmid pOG44 (ThermoFisher Scientific) according to manufacturer's protocols. Lifeact-mCherry™ was induced by addition of 1 μg/mL doxycycline to culture media. For expression of signaling effector proteins, 1 day prior to imaging, 5×10^6 cells were transiently transfected with 10 μg DNA in a 100 μL electroporation tip using a Neon transfection system (ThermoFisher Scientific) according to manufacturer's recommendations for HeLa cells. 5×10^3 cells were plated in each well of the 96-well plate used for imaging. Cells recovered in complete DMEM with 10% FBS overnight. […] For Rac/Rho regulation, the construct PB-NS3a-CAAX-IRES-EGFP-DNCR2-TIAM-P2a-BFP-GNCR1-LARG was used, with images collected for the mCherry™ (Lifeact) and EGFP (DNCR2-TIAM) channels. […]
# NS3a in NIH3T3 cells = assay: Confocal microscopy for colocalization analysis (fixed cells); assay type: cell-based; conditions: 5 μM drug
structure (smiles),measurement,setting,value
CC(C)(C)OC(=O)N[C@H]1CCCCC/C=C\[C@@H]2C[C@@]2(C(=O)NS(=O)(=O)C2CC2)NC(=O)[C@@H]2C[C@@H](OC(=O)N3Cc4cccc(F)c4C3)CN2C1=O [danoprevir],cell shape change,HeLa cells,caused cell expansion
same,Colocalization of DNCR2-EGFP and GNCR1-BFP with NS3a-mCherry-CAAX,NS3a in NIH3T3 cells,DNCR2/NS3a colocalization
same,Localization of NS3a-mCherry with Tom20-BFP-ANR and DNCR2-EGFP-CAAX,NS3a in NIH3T3 cells,moved to the plasma membrane
same,Colocalization of NS3a-mCherry with ANR-BFP-CAAX or NLS-DNCR2-EGFP,NS3a in NIH3T3 cells; 15 min,recruited NS3a to the nucleus with NLS-DNCR2-EGFP
same,Colocalization of NS3a-mCherry with GNCR1-BFP-CAAX or Tom20-DNCR2-EGFP,NS3a in NIH3T3 cells; 15 min,led to colocalization with mitochondria-targeted Tom20-DNCR2-EGFP
